# Measurements as given in ChEMBL document CHEMBL1132890, “Prediction of drug solubility from Monte Carlo simulations” (Bioorg Med Chem Lett, 2000).
# Conditions: buffer
row,Compound,Log S
1,Oc1cccc(Cl)c1Cl,-1.3
2,Clc1c(Cl)c(Cl)c(-c2ccccc2)c(Cl)c1Cl,-7.78
3,"COC(=O)[C@@H]1C2CC[C@@H](C[C@@H]1OC(=O)c1ccccc1)N2C (single isomer, unassigned) [COCAINE]",-2.25
4,COC(C)=O [ACETIC ACID METHYL ESTER],0.46
5,CCO [ALCOHOL],1.1
6,Nc1ccccc1 [ANILINE],-0.41
7,COc1ccccc1 [ANISOLE],-1.85
8,NC(=O)c1ccccc1 [BENZAMIDE],-0.96
9,O=C(O)c1ccccc1 [BENZOIC ACID],-1.55
10,c1ccc(-c2ccccc2)cc1 [BIPHENYL],-4.35
11,C=C(C)C1CC=C(C)C(=O)C1 (centres undefined) [CARVONE],-2.06
12,CN(C)CCCN1c2ccccc2Sc2ccc(Cl)cc21 [CHLORPROMAZINE],-5.1
13,c1ccc2c(c1)oc1ccccc12 [DIBENZOFURAN],-4.6
14,CC/C(=C(/CC)c1ccc(O)cc1)c1ccc(O)cc1 [DIETHYLSTILBESTROL],-4.07
15,O=C(O)Cc1ccccc1Oc1ccc(Cl)cc1Cl [FENCLOFENAC],-3.85
16,COC1=CC(=O)C[C@@H](C)[C@]12Oc1c(Cl)c(OC)cc(OC)c1C2=O [GRISEOFULVIN],-4.07
17,CCCCCC [HEXANE],-3.84
18,c1ccc2[nH]ccc2c1 [INDOLE],-1.21
19,O=C1Nc2ccc(Cl)cc2C(c2ccccc2Cl)=NC1O (centres undefined) [LORAZEPAM],-3.6
20,C1COCCN1 [MORPHOLINE],1.97
21,O=[N+]([O-])c1ccccc1 [NITROBENZENE],-1.8
22,O=C1CN(/N=C/c2ccc([N+](=O)[O-])o2)C(=O)N1 [NITROFURANTOIN],-3.38
23,CCOC(=O)NCCOc1ccc(Oc2ccccc2)cc1 [PHENOXYCARB],-4.7
24,CCCO [PROPANOL],0.62
25,c1ccc2ncccc2c1 [QUINOLINE],-1.3
26,O=C(O)c1ccccc1O [SALICYLIC ACID],-1.82
27,Cc1ccccc1 [TOLUENE],-2.21
28,CC(=O)CC(c1ccccc1)c1c(O)c2ccccc2oc1=O (centres undefined) [WARFARIN],-4.26
29,Cc1ccc(O)cc1 [p-CRESOL],-0.73
